# Where two headings read alike, the source gives them in different places.
# How the values were obtained:
# 22RV1 cells = assay: Cell viability (AlamarBlue), 22RV1 prostate cancer cells; type: cell-based, human; parameters: key to EC50 (μM) in 22RV1 cells: Inactive: less than 50% inhibition at the highest concentration tested at 50 μM; settings: 72 hours of treatment
# Procedure: (§1) In another exemplary method, half maximal effective concentration (EC50) was determined for some compounds and their isomers as disclosed herein in a variety of human cancer cell lines. In brief, cells from two prostate cancer cell lines (LNCaP, 22RV1), one glioblastoma cell line (U87), one breast cancer cell line (MCF7), a glioma cell line (LN18), a normal prostate cell line (RWPE1), and a glioblastoma cell line (T98G) were plated in a multi-well plate. After 24 hours, one of the compounds herein was added to the well at increasing concentrations. After 72 hours of treatment, cell viability was assessed using AlamrBlue® (Invitrogen) and fluorescence was read using the CLARIOstar Plus Multilabel Plate Reader (BMG Labtech). Samples were normalized to no treatment controls. EC50 values were determined using GraphPad Prism.
# RWPE1 cells = assay: Cell viability (AlamarBlue), RWPE1 normal prostate cells; type: cell-based, human; parameters: key to EC50 (μM) in RWPE1 cells: Inactive: less than 50% inhibition at the highest concentration tested at 50 μM; settings: normal prostate cell line; for EC50: Homo sapiens, RWPE-1, 72 hours of treatment; for EC50 (μM) in RWPE1 cells: 72 hours of treatment
# Procedure: as §1
# LNCaP cells = assay: Cell viability (AlamarBlue), LNCaP prostate cancer cells; type: cell-based, human; parameters: key to EC50 (μM) in LNCaP cells: Inactive: less than 50% inhibition at the highest concentration tested at 50 μM; settings: 72 hours of treatment
# Procedure: as §1
# U87 cells = assay: Cell viability (AlamarBlue), U87 glioblastoma cells; type: cell-based, human; parameters: key to EC50 (μM) in U87 cells: Inactive: less than 50% inhibition at the highest concentration tested at 50 μM; settings: 72 hours of treatment
# Procedure: as §1
# [1] = Kinetic solubility in aqueous PBS buffer (HPLC-MS); type: physicochemical; settings: kinetic from dmso stock
# Procedure: In another exemplary method, central nervous system multiparameter optimization (CNS MPO) score and kinetic solubility of selected compounds was determined. CNS MPO score for compounds and their isomers disclosed herein were calculated using an algorithm that uses a weighted scoring function assessing 6 key physicochemical properties (clogP, clogD, MW, TPSA, HBD, and pKa) for blood-brain-barrier (BBB penetration). CNS MPO score ranged from 0 and 6.0 with scores≥4.0 used as a cut-off to select compounds that can have a high probability of accumulating in the CNS. Kinetic solubility of a compound is the maximum solubility of the fastest precipitating species of the compound. Kinetic solubility was determined by preparing a concentrated stock solution for compounds and their isomers disclosed herein in an organic solvent (DMSO), after which the solution was mixed with an aqueous PBS buffer and then filtered. Filtrate was tested to quantify the kinetic solubilty using HPLC-MS calibration curve. The CNS MPO Score and kinetic solubility of the compounds tested are provided in Table 7 where “ND” means not determined.
# cancer cell = assay: Cancer cell viability, cell line not stated (per-compound ranges in description); type: cell-based; settings: 'In some embodiments', values worded 'about', read-out: EC50 in cancer cell viability (range stated in description)
# Procedure: as §1
# [2] = 'In some embodiments', values worded 'about', read-out: kinetic solubility (range stated in description)
compound,measurement,setting,value
"COC1CCC(C(=O)NC(=O)Nc2ccc(Oc3ncc(Cl)cn3)c(F)c2)CC1 (single isomer, unassigned) [Compound 14A, N-((4-((5-chloropyrimidin-2-yl)oxy)-3-fluorophenyl)carbamoyl)-4-methoxycyclohexane-1-carboxamide]",EC50,"22RV1 cells; Homo sapiens, 22Rv1, 72 h",1.1 µM
same,EC50,RWPE1 cells,1.3 µM
same,EC50,"LNCaP cells; Homo sapiens, LNCaP, 72 h",1.8 µM
same,EC50,"U87 cells; Homo sapiens, U-87 MG, 72 h",1.3 µM
"COC1CCC(C(=O)NC(=O)Nc2ccc(Oc3ncc(Cl)cn3)c(F)c2)CC1 (single isomer, unassigned) [Compound 14B, N-((4-((5-chloropyrimidin-2-yl)oxy)-3-fluorophenyl)carbamoyl)-4-methoxycyclohexane-1-carboxamide]",EC50 (μM) in 22RV1 cells,22RV1 cells,Inactive
same,EC50 (μM) in RWPE1 cells,RWPE1 cells,Inactive
same,EC50 (μM) in U87 cells,U87 cells,Inactive
"COC1CC(C(=O)NC(=O)Nc2ccc(Oc3ccc(F)cn3)c(C)c2)C1 (single isomer, unassigned) [Compound 15B, N-((4-((5-fluoropyridin-2-yl)oxy)-3-methylphenyl)carbamoyl)-3-methoxycyclobutanecarboxamide]",EC50,22RV1 cells,17.3 µM
same,EC50 (μM) in RWPE1 cells,RWPE1 cells,Inactive
same,EC50,LNCaP cells,3.9 µM
same,EC50,U87 cells,22 µM
"COC1CC(C(=O)NC(=O)Nc2ccc(Oc3ccc(C#N)cn3)c(C)c2)C1 (single isomer, unassigned) [Compound 16B, N-((4-((5-cyanopyridin-2-yl)oxy)-3-methylphenyl)carbamoyl)-3-methoxycyclobutane-1-carboxamide]",EC50,22RV1 cells,21.2 µM
same,EC50 (μM) in RWPE1 cells,RWPE1 cells,Inactive
same,EC50,LNCaP cells,5 µM
same,EC50,U87 cells,24 µM
"COC1CC(C(=O)NC(=O)Nc2ccc(Oc3ccc(Cl)cn3)c(C)c2)C1 (single isomer, unassigned) [Compound 19B, 1-{4-[(5-chloropyridin-2-yl)oxy]-3-methylphenyl}-3-(3-methoxycyclobutanecarbonyl) urea]",EC50,22RV1 cells,4.2 µM
same,EC50 (μM) in RWPE1 cells,RWPE1 cells,Inactive
same,EC50,LNCaP cells,1.3 µM
same,EC50,U87 cells,13.7 µM
"COC1CC(C(=O)NC(=O)Nc2ccc(Oc3ncc(Cl)cn3)c(C)c2)C1 (single isomer, unassigned) [Compound 20B, N-((4-((5-chloropyrimidin-2-yl)oxy)-3-methylphenyl)carbamoyl)-3-methoxycyclobutane-1-carboxamide]",EC50,22RV1 cells,15.3 µM
same,EC50 (μM) in RWPE1 cells,RWPE1 cells,Inactive
same,EC50,LNCaP cells,5 µM
same,EC50,U87 cells,31.2 µM
"COC1CC(C(=O)NC(=O)Nc2ccc(Oc3nccs3)c(C)c2)C1 (single isomer, unassigned) [Compound 45A, 3-methoxy-N-((3-methyl-4-(thiazol-2-yloxy)phenyl)carbamoyl)cyclobutane-1-carboxamide]",EC50,22RV1 cells,2.8 µM
same,EC50 (μM) in RWPE1 cells,RWPE1 cells,Inactive
same,EC50,LNCaP cells,0.9 µM
same,EC50,U87 cells,3.7 µM
"COC1CC(C(=O)NC(=O)Nc2ccc(Oc3nccs3)c(C)c2)C1 (single isomer, unassigned) [Compound 45B, 3-methoxy-N-((3-methyl-4-(thiazol-2-yloxy)phenyl)carbamoyl)cyclobutane-1-carboxamide]",EC50,22RV1 cells,14.2 µM
same,EC50 (μM) in RWPE1 cells,RWPE1 cells,Inactive
same,EC50,LNCaP cells,4 µM
same,EC50,U87 cells,12.2 µM
"COC1CCC(C(=O)NC(=O)Nc2ccc(Oc3ncco3)c(C)c2)CC1 (stereo not drawn) [Compound 21, 1-(4-methoxycyclohexanecarbonyl)-3-[3-methyl-4-(1,3-oxazol-2-yloxy)phenyl]urea]",EC50,"22RV1 cells; Homo sapiens, 22Rv1, 72 h",24 µM
same,EC50,RWPE1 cells,33 µM
same,EC50,"LNCaP cells; Homo sapiens, LNCaP, 72 h",19.7 µM
same,EC50,"U87 cells; Homo sapiens, U-87 MG, 72 h",20.8 µM
"COC1CCC(C(=O)NC(=O)Nc2ccc(Oc3cccnn3)c(C)c2)CC1 (stereo not drawn) [Compound 22, 1-(4-methoxycyclohexanecarbonyl)-3-[3-methyl-4-(pyridazin-3-yloxy)phenyl]urea]",EC50 (μM) in 22RV1 cells,22RV1 cells,Inactive
same,EC50 (μM) in RWPE1 cells,RWPE1 cells,Inactive
same,EC50 (μM) in LNCaP cells,LNCaP cells,Inactive
same,EC50 (μM) in U87 cells,U87 cells,Inactive
"COC1CCC(C(=O)NC(=O)Nc2ccc(Oc3ncc(Cl)cn3)cc2F)CC1 (stereo not drawn) [Compound 23, 3-{4-[(5-chloropyrimidin-2-yl)oxy]-2-fluorophenyl}-1-(4-methoxycyclohexanecarbonyl)urea]",EC50,"22RV1 cells; Homo sapiens, 22Rv1, 72 h",30.6 µM
same,EC50 (μM) in RWPE1 cells,RWPE1 cells,Inactive
same,EC50 (μM) in LNCaP cells,LNCaP cells,Inactive
same,EC50 (μM) in U87 cells,U87 cells,Inactive
"COC1CCC(C(=O)NC(=O)Nc2ccc(Oc3ccc(Cl)cn3)cc2F)CC1 (stereo not drawn) [Compound 24, 3-{4-[(5-chloropyridin-2-yl)oxy]-2-fluorophenyl}-1-(4-methoxycyclohexanecarbonyl)urea]",EC50 (μM) in 22RV1 cells,22RV1 cells,Inactive
same,EC50,RWPE1 cells,31 µM
same,EC50 (μM) in LNCaP cells,LNCaP cells,Inactive
same,EC50 (μM) in U87 cells,U87 cells,Inactive
"COC1CC(C(=O)NC(=O)Nc2ccc(Oc3nc4ccccc4s3)c(C)c2)C1 (stereo not drawn) [Compound 56, N-((4-(benzo[d]thiazol-2-yloxy)-3-methylphenyl)carbamoyl)-3-methoxycyclobutane-1-carboxamide]",EC50,"22RV1 cells; Homo sapiens, 22Rv1, 72 h",0.35 µM
same,EC50,RWPE1 cells,22.4 µM
same,solubility kinetic,"[1]; DMSO stock mixed with aqueous PBS buffer, filtered, read-out: Kinetic Solubility",1 µM
same,EC50,"LNCaP cells; Homo sapiens, LNCaP, 72 h",0.15 µM
same,EC50,"U87 cells; Homo sapiens, U-87 MG, 72 h",0.89 µM
"O=C(NC(=O)C1CCCCC1)Nc1ccc(Oc2ncc(Cl)cn2)c(F)c1 [Compound 70, N-((4-((5-chloropyrimidin-2-yl)oxy)-3-fluorophenyl)carbamoyl)cyclohexanecarboxamide]",EC50 (μM) in 22RV1 cells,22RV1 cells,Inactive
same,EC50 (μM) in RWPE1 cells,RWPE1 cells,Inactive
same,EC50 (μM) in LNCaP cells,LNCaP cells,Inactive
same,EC50 (μM) in U87 cells,U87 cells,Inactive
"COC12CC(C(=O)NC(=O)Nc3ccc(Oc4nccs4)c(C)c3)(C1)C2 [drawing 270, 3-methoxy-N-((3-methyl-4-(thiazol-2-yloxy)phenyl)carbamoyl)bicyclo[1.1.1]pentane-1-carboxamide]",EC50,cancer cell,0.04 to 0.08 µM
same,solubility kinetic,[1]; [2],1.5 to 3.5 µM
"COC12CC(C(=O)NC(=O)Nc3ccc(Oc4ccc(Cl)cn4)c(C)c3)(C1)C2 [drawing 271, N-((4-((5-chloropyridin-2-yl)oxy)-3-methylphenyl)carbamoyl)-3-methoxybicyclo[1.1.1]pentane-1-carboxamide]",EC50,cancer cell,0.01 to 0.16 µM
"COC12CC(C(=O)NC(=O)Nc3ccc(Oc4ncc(Cl)cn4)c(C)c3)(C1)C2 [drawing 272, N-((4-((5-chloropyrimidin-2-yl)oxy)-3-methylphenyl)carbamoyl)-3-methoxybicyclo[1.1.1]pentane-1-carboxamide]",EC50,cancer cell,0.04 to 0.08 µM
same,solubility kinetic,[1]; [2],1.5 to 3.5 µM
"COC12CC(C(=O)NC(=O)Nc3ccc(Oc4ccccn4)c(C)c3)(C1)C2 [drawing 273, 3-methoxy-N-((3-methyl-4-(pyridin-2-yloxy)phenyl)carbamoyl)bicyclo[1.1.1]pentane-1-carboxamide]",EC50,cancer cell,0.1 to 0.4 µM
"COC12CC(C(=O)NC(=O)Nc3ccc(Oc4ncccn4)c(C)c3)(C1)C2 [drawing 274, 3-methoxy-N-((3-methyl-4-(pyrimidin-2-yloxy)phenyl)carbamoyl)bicyclo[1.1.1]pentane-1-carboxamide]",EC50,cancer cell,0.5 to 4 µM
same,solubility kinetic,[1]; [2],25 to 30 µM
"COC12CC(C(=O)NC(=O)Nc3ccc(Oc4ncc(F)cn4)c(C)c3)(C1)C2 [drawing 275, N-((4-((5-fluoropyrimidin-2-yl)oxy)-3-methylphenyl)carbamoyl)-3-methoxybicyclo[1.1.1]pentane-1-carboxamide]",EC50,cancer cell,0.5 to 4 µM
same,solubility kinetic,[1]; [2],85 to 91 µM
"COC12CC(C(=O)NC(=O)Nc3ccc(Oc4ccc(F)cn4)c(C)c3)(C1)C2 [drawing 276, N-((4-((5-fluoropyridin-2-yl)oxy)-3-methylphenyl)carbamoyl)-3-methoxybicyclo[1.1.1]pentane-1-carboxamide]",EC50,cancer cell,0.05 to 0.35 µM
"COC12CC(C(=O)NC(=O)Nc3cc(C)c(Oc4ccc(F)cn4)c(F)c3)(C1)C2 [drawing 278, N-((3-fluoro-4-((5-fluoropyridin-2-yl)oxy)-5-methylphenyl)carbamoyl)-3-methoxybicyclo[1.1.1]pentane-1-carboxamide]",EC50,cancer cell,0.087 to 0.63 µM
"COC12CC(C(=O)NC(=O)Nc3ccc(C)c(Oc4ccccn4)c3)(C1)C2 [drawing 284, 3-methoxy-N-((4-methyl-3-(pyridin-2-yloxy)phenyl)carbamoyl)bicyclo[1.1.1]pentane-1-carboxamide]",EC50,cancer cell,0.02 to 0.07 µM
